Earlier results on 3 compounds are cited in patent US10220017B2, “Liquid pharmaceutical compositions comprising SGLT-2 inhibitors” (Boehringer Ingelheim Vetmedica GmbH, priority 2015, dated 2019).

Molecules are shown by their SMILES.

For the series the following is noted: n-octanol/water; values taken from http://www.chemicalize.org/.
For `CCO` [ethanol], the log10P is on record as −0.16.

`OCC(O)CO` [propane-1,2,3-triol]: the log10P is on record as −1.84.

Turning to `CC(O)CO` (stereo not drawn) [propane-1,2-diol], the log10P is −0.79.
